# Test system: T1, hCMG helicase
# T1 construct: fork-unwinding strand displacement assay with ATP
# Test: helicase assay (fork-unwinding; strand displacement assay)
# Type: biochemical, human
# Conditions: 20 uL reactions: 1 uL DMSO or drugs, 2 uL hCMG (~15 fmol enzyme), 0.5 mM ATP; RF1-134 compared to CA1 (100% inhibition); drug concentration not given
# Experimental: For 20 uL reactions: 1 uL DMSO or drugs, 2 uL hCMG (~15 fmol enzyme), and 0.5 mM ATP were added. The noviose sugar (purple box; called RF1-134) was generated using synthetic chemical approaches. […] CA1 refers to coumermycin-A1.
compound,measurement,value
"CO[C@H]1[C@H](OC(=O)c2ccc(C)[nH]2)[C@H](O)[C@@H](Oc2ccc3c(O)c(NC(=O)c4c[nH]c(C(=O)Nc5c(O)c6ccc(O[C@H]7OC(C)(C)[C@@H](OC)[C@H](OC(=O)c8ccc(C)[nH]8)[C@@H]7O)c(C)c6oc5=O)c4C)c(=O)oc3c2C)OC1(C)C [CA1, coumermycin-A1]",inhibition of hCMG helicase activity,100%

# From patent publication US20260308196A1, “HELICASE INHIBITORS” (H. LEE MOFFITT CANCER CENTER AND RESEARCH INSTITUTE, INC., priority 2023, published 2026)
